In US10676479B2, “Imidazolepyridine compounds and uses thereof” (Novartis AG, priority 2016, dated 2020) one finds IC50 data, which are given here for 16 compounds.

Like-named read-outs stand apart in the source and are kept apart here.

The test system of assay [1] is H3K27 methylation in G401 cell. The assay can be described thus: ELISA (H3K27 methylation) assay. As to conditions: Homo sapiens, G-401, ELISA Qualified assay, 48 h, read-out: (c) IC50. It is filed as cell-based. The method in brief:
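G401 cells given 3-fold serial dilutions (eight or twelve points, top 20 μM) for 48 h. Lysate ELISA for H3K27 methylation normalized to H3 signal, % inhibition versus DMSO, IC50 from dose-response fit.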

For assay [2], the target named is EED (1-441)-His protein (Homo sapiens (Human), UniProt O75530). The assay can be described thus: EED-H3K27Me3 peptide competition binding assay by AlphaScreen. The settings on record: EED Alphascreen binding Qualified assay.
Sequence of EED (1-441)-His protein (O75530 whole entry): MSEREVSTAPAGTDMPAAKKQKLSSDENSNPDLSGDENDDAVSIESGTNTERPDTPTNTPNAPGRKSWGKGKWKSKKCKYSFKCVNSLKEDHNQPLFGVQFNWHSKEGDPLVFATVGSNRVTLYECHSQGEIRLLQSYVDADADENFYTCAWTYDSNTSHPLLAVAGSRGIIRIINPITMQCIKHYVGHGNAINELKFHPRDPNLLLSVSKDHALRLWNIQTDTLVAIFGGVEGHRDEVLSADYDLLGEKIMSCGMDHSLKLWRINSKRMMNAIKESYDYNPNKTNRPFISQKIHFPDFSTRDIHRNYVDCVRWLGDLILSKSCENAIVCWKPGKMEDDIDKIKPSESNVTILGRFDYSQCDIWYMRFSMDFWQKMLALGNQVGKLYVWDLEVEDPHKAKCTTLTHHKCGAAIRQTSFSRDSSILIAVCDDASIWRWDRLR
For assay [3], the target named is wild type PRC2 (wtPRC2) complex (Homo sapiens (Human), UniProt O75530). The assay can be described thus: EED LC-MS assay. It is filed as biochemical. The method, then: EED LC-MS Assay Representative compounds of the present invention were serially and separately diluted 3-fold in DMSO to obtain a total of eight or twelve concentrations. […] A 6 μL solution of 3 μM of the peptide substrate H3K27Me0 (histone H3[21-44]-biotin) in reaction buffer was added to initiate each reaction. […] The data were then fit to a dose response equation using the program Helios to get the IC50 values of the test compound.
Sequence of wild type PRC2 (wtPRC2) complex (O75530 whole entry): as above
Sequence of wild type PRC2 (wtPRC2) complex (Q15910 whole entry partner): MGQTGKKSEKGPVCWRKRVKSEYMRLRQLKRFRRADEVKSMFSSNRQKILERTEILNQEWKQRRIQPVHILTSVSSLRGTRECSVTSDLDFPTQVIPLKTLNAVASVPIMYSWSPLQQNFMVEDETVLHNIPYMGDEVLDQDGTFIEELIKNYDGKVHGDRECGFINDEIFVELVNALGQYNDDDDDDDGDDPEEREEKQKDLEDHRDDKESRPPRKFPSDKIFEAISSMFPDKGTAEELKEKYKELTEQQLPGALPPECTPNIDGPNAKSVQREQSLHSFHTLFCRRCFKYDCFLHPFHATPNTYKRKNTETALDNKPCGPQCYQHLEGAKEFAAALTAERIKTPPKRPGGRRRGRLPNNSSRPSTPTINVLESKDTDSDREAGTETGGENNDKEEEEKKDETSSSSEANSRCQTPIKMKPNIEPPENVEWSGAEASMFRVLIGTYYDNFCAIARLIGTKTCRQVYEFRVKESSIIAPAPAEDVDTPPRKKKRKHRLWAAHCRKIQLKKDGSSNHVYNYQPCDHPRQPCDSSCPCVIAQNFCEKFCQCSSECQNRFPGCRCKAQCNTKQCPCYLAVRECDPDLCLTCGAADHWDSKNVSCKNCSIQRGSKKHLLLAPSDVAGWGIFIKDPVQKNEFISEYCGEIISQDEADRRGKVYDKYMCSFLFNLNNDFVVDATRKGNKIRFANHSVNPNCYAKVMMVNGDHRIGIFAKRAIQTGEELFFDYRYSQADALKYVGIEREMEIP
Sequence of wild type PRC2 (wtPRC2) complex (Q15022 whole entry partner): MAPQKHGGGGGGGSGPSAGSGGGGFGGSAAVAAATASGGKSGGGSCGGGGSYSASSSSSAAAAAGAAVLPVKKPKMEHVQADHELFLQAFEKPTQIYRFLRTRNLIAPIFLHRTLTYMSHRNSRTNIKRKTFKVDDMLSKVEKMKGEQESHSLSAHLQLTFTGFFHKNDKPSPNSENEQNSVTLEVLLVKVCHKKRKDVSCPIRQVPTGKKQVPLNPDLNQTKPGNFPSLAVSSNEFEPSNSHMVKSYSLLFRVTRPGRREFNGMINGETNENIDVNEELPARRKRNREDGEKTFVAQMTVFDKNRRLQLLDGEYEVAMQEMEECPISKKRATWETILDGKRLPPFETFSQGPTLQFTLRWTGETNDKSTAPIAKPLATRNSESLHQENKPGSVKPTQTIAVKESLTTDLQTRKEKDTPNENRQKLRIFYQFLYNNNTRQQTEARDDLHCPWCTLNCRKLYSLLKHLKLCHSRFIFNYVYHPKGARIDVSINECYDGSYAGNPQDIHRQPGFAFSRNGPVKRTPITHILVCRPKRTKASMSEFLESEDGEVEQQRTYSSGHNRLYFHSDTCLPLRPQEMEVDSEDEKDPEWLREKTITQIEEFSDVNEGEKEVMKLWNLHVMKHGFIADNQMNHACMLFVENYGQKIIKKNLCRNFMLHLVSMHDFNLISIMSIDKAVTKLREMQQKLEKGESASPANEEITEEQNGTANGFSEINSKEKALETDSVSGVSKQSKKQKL

Setting [4] is: EED LC-MS Qualified assay, read-out: (b) IC50.

Turning to `CS(=O)(=O)c1ncn2c(NCc3c(F)ccc4c3CCO4)ncc(Br)c12` [Example 103, 8-bromo-N-((5-fluoro-2,3-dihydrobenzofuran-4-yl)methyl)-1-(methylsulfonyl)imidazo[1,5-c]pyrimidin-5-amine], the results for the half-inhibitory concentration (IC50) in assay [1], in assay [2] and in assay [3] (setting [4]) were 36.1 nM, 5 nM and 10 nM, respectively.

As for `CCS(=O)(=O)c1ncn2c(NCc3c(F)ccc4c3CCO4)ncc(-c3cnc(C)nc3C)c12` [Example 104, 8-(2,4-dimethylpyrimidin-5-yl)-1-(ethylsulfonyl)-N-((5-fluoro-2,3-dihydrobenzofuran-4-yl)methyl)imidazo[1,5-c]pyrimidin-5-amine], the IC50 in assay [1] was found to be 2.1 nM; in assay [2] it was 3 nM; in assay [3] (setting [4]), 10.5 nM.

As to `Cc1ncccc1-c1cnc(NCc2c(F)ccc3c2CCO3)n2cnc(C(=O)N(C)C)c12` [Example 105, 5-(((5-fluoro-2,3-dihydrobenzofuran-4-yl)methyl)amino)-N,N-dimethyl-8-(2-methylpyridin-3-yl)imidazo[1,5-c]pyrimidine-1-carboxamide], the figures for the IC50 in assay [1], in assay [2] and in assay [3] (setting [4]) were 40.1 nM, 10.8 nM and 30.4 nM, respectively.

`Cc1ncccc1-c1cnc(NCc2c(F)ccc3c2CCO3)n2cnc(C(=O)NCCO)c12` [Example 107, 5-(((5-fluoro-2,3-dihydrobenzofuran-4-yl)methyl)amino)-N-(2-hydroxyethyl)-8-(2-methylpyridin-3-yl)imidazo[1,5-c]pyrimidine-1-carboxamide]: the IC50 in assay [1] amounted to 25.6 nM; in assay [2] it was 7.7 nM; in assay [3] (setting [4]), 6.9 nM.

For `Cc1ncccc1-c1cnc(NCc2c(F)ccc3c2CCO3)n2cnc(C(=O)NN)c12` [Example 108, 5-(((5-fluoro-2,3-dihydrobenzofuran-4-yl)methyl)amino)-8-(2-methylpyridin-3-yl)imidazo[1,5-c]pyrimidine-1-carbohydrazide], the IC50 in assay [1] turned out to be 13.1 nM; in assay [2], 7 nM; in assay [3] (setting [4]), 13.6 nM.

On to `CS(=O)(=O)c1ccc(-c2cnc(NCc3c(F)ccc4c3CCO4)n3cnc(Cl)c23)cc1` [Example 109, 1-chloro-N-((5-fluoro-2,3-dihydrobenzofuran-4-yl)methyl)-8-(4-(methylsulfonyl)phenyl)imidazo[1,5-c]pyrimidin-5-amine], for which the IC50 in assay [1] amounted to 99.4 nM; in assay [2], 12.2 nM; in assay [3] (setting [4]) it was 15 nM.

`Cc1ncccc1-c1cnc(NCc2c(F)ccc3c2CCO3)n2cnc(-c3ccccc3)c12` [Example 111, N-((5-fluoro-2,3-dihydrobenzofuran-4-yl)methyl)-8-(2-methylpyridin-3-yl)-1-phenylimidazo[1,5-c]pyrimidin-5-amine]: the 50% inhibitory concentration (IC50) in assay [1] was determined as 23.8 nM; in assay [2] it was 7.6 nM; in assay [3] (setting [4]), 9.6 nM.

On to `Cc1ncccc1-c1ncn2c(NCc3c(F)ccc4c3CCO4)ncc(-c3ccc(S(C)(=O)=O)cc3)c12` [Example 112, N-((5-fluoro-2,3-dihydrobenzofuran-4-yl)methyl)-1-(2-methylpyridin-3-yl)-8-(4-(methylsulfonyl)phenyl)imidazo[1,5-c]pyrimidin-5-amine], for which the IC50 in assay [1] worked out at 13.1 nM; in assay [2], 10.5 nM; in assay [3] (setting [4]), 12.1 nM.

`Cc1ccc(-c2ncn3c(NCc4c(F)ccc5c4CCO5)ncc(-c4cnc(C)nc4C)c23)c(C)n1` [Example 113, 1-(2,6-dimethylpyridin-3-yl)-8-(2,4-dimethylpyrimidin-5-yl)-N-((5-fluoro-2,3-dihydrobenzofuran-4-yl)methyl)imidazo[1,5-c]pyrimidin-5-amine]: the IC50 worked out at 53.1 nM in assay [1], 15.2 nM in assay [2] and 38.9 nM in assay [3] (setting [4]).

`Cc1ccc(-c2ncn3c(NCc4c(F)ccc5c4CCO5)ncc(-c4cnc(C)nc4C)c23)cn1` [Example 114, 8-(2,4-dimethylpyrimidin-5-yl)-N-((5-fluoro-2,3-dihydrobenzofuran-4-yl)methyl)-1-(6-methylpyridin-3-yl)imidazo[1,5-c]pyrimidin-5-amine]: the IC50 in assay [1] was found to be 22.8 nM; in assay [2] it was 8.4 nM; in assay [3] (setting [4]), 31.9 nM.

As to `Cc1ccc(-c2ncn3c(NCc4c(F)ccc5c4CCO5)ncc(-c4cccnc4C)c23)cn1` [Example 115, N-((5-fluoro-2,3-dihydrobenzofuran-4-yl)methyl)-8-(2-methylpyridin-3-yl)-1-(6-methylpyridin-3-yl)imidazo[1,5-c]pyrimidin-5-amine], the concentration for half-maximal inhibition (IC50) in assay [1] was 4 nM; in assay [2], 6.2 nM; in assay [3] (setting [4]) it was 17.6 nM.

Regarding `Cc1ncccc1-c1cnc(NCc2c(F)ccc3c2CCO3)n2cnc(C#C[Si](C)(C)C)c12` [Example 116, N-((5-fluoro-2,3-dihydrobenzofuran-4-yl)methyl)-8-(2-methylpyridin-3-yl)-1-((trimethylsilyl)ethynyl)imidazo[1,5-c]pyrimidin-5-amine], the IC50 in assay [1] came to 90 nM; in assay [2], 8.3 nM; in assay [3], 8.7 nM.

With `CC(C)Oc1ccc(-c2ncn3c(NCc4c(F)ccc5c4CCO5)ncc(-c4ccc(S(C)(=O)=O)cc4)c23)cc1` [Example 117, N-((5-fluoro-2,3-dihydrobenzofuran-4-yl)methyl)-1-(4-isopropoxyphenyl)-8-(4-(methylsulfonyl)phenyl)imidazo[1,5-c]pyrimidin-5-amine], the IC50 in assay [1] is 58.5 nM; in assay [2], 11.4 nM; in assay [3] (setting [4]), 19.5 nM.

Take `CS(=O)(=O)c1ccc(-c2cnc(NCc3c(F)ccc4c3CCO4)n3cnc(-c4ncco4)c23)cc1` [Example 118, N-((5-fluoro-2,3-dihydrobenzofuran-4-yl)methyl)-8-(4-(methylsulfonyl)phenyl)-1-(oxazol-2-yl)imidazo[1,5-c]pyrimidin-5-amine]: the IC50 in assay [1] is 2.6 nM; in assay [2] it was 4.8 nM; in assay [3] (setting [4]), 5.5 nM.

`N#Cc1ncn2c(NCc3c(F)ccc4c3CCO4)ncc(-n3ccnc3)c12` [Example 119, 5-(((5-fluoro-2,3-dihydrobenzofuran-4-yl)methyl)amino)-8-(1H-imidazol-1-yl)imidazo[1,5-c]pyrimidine-1-carbonitrile]: the half-maximal inhibitory concentration (IC50) in assay [1] amounted to 18.8 nM; in assay [2] it was 18.1 nM; in assay [3] (setting [4]) it was 44.7 nM.

Regarding `Cc1ncccc1-c1cnc(NCc2c(F)ccc3c2CCO3)n2cnc(CO)c12` [Example 120, (5-(((5-fluoro-2,3-dihydrobenzofuran-4-yl)methyl)amino)-8-(2-methylpyridin-3-yl)imidazo[1,5-c]pyrimidin-1-yl)methanol], the concentration for half-maximal inhibition (IC50) in assay [1] came to 15.6 nM; in assay [2] it was 11.4 nM; in assay [3] (setting [4]) it was 24.1 nM.
